Three compounds from patent US10780101B2, “Amide derivatives of squalamine for the treatment of infections” (VIRBAC, priority 2016, dated 2020) can be followed below.

In brackets after ≈: the same amount, converted by molar mass. Where two headings read alike, the source gives them in different places.

The test system of one experiment is S. aureus Animal (340). The experiment in a line: MIC determination, S. aureus animal (340). It counts as cell-based. Conditions: Staphylococcus aureus; Gram-positive; Mueller-Hinton medium, 24 h at 37° C. An outline of the steps:
(§1)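 Broth microdilution in Mueller-Hinton medium; compounds from 5 mg/mL stock in DMSO/methanol (50/50), twofold serial dilutions, inoculum adjusted to OD 0.01. Plates incubated 24 h at 37 °C, humid atmosphere; OD read at 620 nm to derive MIC, duplicates.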

The test system of a further experiment is E. coli Animal (1956). Nature of the experiment: MIC determination, E. coli animal (1956). The class given is cell-based. To be noted: Escherichia coli; Gram-negative; Mueller-Hinton medium, 24 h at 37° C. Summed up:
as §1

In another experiment the test system is C. albicans. Nature of the experiment: Antifungal activity, cascade microdilution. To be noted: Candida albicans, 24 h, read-out: IC50 (μg/mL) C. albicans. It counts as cell-based. On the technique in general: In broth dilution the organism is exposed to a series of concentrations in liquid medium.
Experiment [1] concerns P. aeruginosa (1051575). The experiment in a line: Potentiation of chloramphenicol activity (combination MIC). It counts as cell-based, Pseudomonas aeruginosa. To be noted: chloramphenicol 2 μg/mL; concentration of compound required to restore antibiotic activity. The protocol:
This method requires the use of a 96-well plate: 100 μL of a liquid culture medium are placed in each well and then seeded with the microbial suspension prepared previously. The required volume to be seeded is calculated for an OD of 0.01, which corresponds to about 5×10^6 bacteria in each well. In this plate, the first line corresponds to a negative control (200 μL of sterile culture medium in each well), the second line corresponds to a positive control (100 μL of sterile culture medium+100 μL of the bacterial suspension), and the third line contains 192 μL of culture medium; 8 μL of compound of formula (I) to be tested are placed in each well. Thereafter, a cascade dilution is performed from this line. […] 92 μL of bacterial suspension are then added to lines 3 to 8. The results are read (the determination of the MIC (2 μg/mL of doxycycline) in the presence of X g/mL of compound of formula (I)) after 24 hours of incubation at 37° C. under a humid atmosphere. After 24 hours of incubation at 37° C., 40 μL of nitro tetrazolium iodide are added to each well to reveal the presence of live bacteria by staining the medium pink.
The procedure is identical to that indicated in Example 5 above. […]
(§2) The results are given in table V. They indicate the concentration of compound of formula (I) required to be able to restore the activity of the antibiotic under consideration.

Experiment [2] relates to S. aureus Human ATCC 25923. Nature of the experiment: MIC determination, S. aureus human ATCC 25923. It counts as cell-based. Conditions: Staphylococcus aureus, ATCC25923; Gram-positive; Mueller-Hinton medium, 24 h at 37° C. An outline of the steps:
as §1

For experiment [3], the system named is P. aeruginosa Human ATCC 27853. Nature of the experiment: MIC determination, P. aeruginosa human ATCC 27853. It counts as cell-based. To be noted: Pseudomonas aeruginosa, ATCC27853; Gram-negative; Mueller-Hinton medium, 24 h at 37° C. An outline of the steps: as §1
Another experiment deals with CHO-K1 cells. Nature of the experiment: WST1 cytotoxicity test on CHO-K1 cells. It counts as cell-based, Chinese hamster. To be noted: Cricetulus griseus. An outline of the steps: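 CHO-K1 cells pre-grown 24 h, then exposed to increasing compound concentrations in duplicate for 24 h at 37° C, 5% CO2. Viability read after 20 min with 10% WST-1 in PBS at 450 nm; IC50 from nonlinear regression as concentration cutting viability 50%.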
On the technique in general: Formazan colour is commonly taken as a measure of viable cells.

Experiment [4] concerns P. aeruginosa Animal (1051575). Nature of the experiment: MIC determination, P. aeruginosa animal (1051575). The class given is cell-based. Conditions: Pseudomonas aeruginosa; Gram-negative; Mueller-Hinton medium, 24 h at 37° C. Summed up:
as §1

The subject of experiment [5] is P. aeruginosa (1051575). The experiment in a line: Potentiation of erythromycin activity (combination MIC). The class given is cell-based, Pseudomonas aeruginosa. Conditions: erythromycin 2 μg/mL; concentration of compound required to restore antibiotic activity. The protocol: This method requires the use of a 96-well plate: 100 μL of a liquid culture medium are placed in each well and then seeded with the microbial suspension prepared previously. The required volume to be seeded is calculated for an OD of 0.01, which corresponds to about 5×10^6 bacteria in each well. In this plate, the first line corresponds to a negative control (200 μL of sterile culture medium in each well), the second line corresponds to a positive control (100 μL of sterile culture medium+100 μL of the bacterial suspension), and the third line contains 192 μL of culture medium; 8 μL of compound of formula (I) to be tested are placed in each well. Thereafter, a cascade dilution is performed from this line. L of a doxycycline solution (1 mg dissolved in 20 mL) are then added to each well of lines 3 to 8 to obtain a final antibiotic concentration of 2 μg/mL. 92 μL of bacterial suspension are then added to lines 3 to 8. The results are read (the determination of the MIC (2 μg/mL of doxycycline) in the presence of X g/mL of compound of formula (I)) after 24 hours of incubation at 37° C. under a humid atmosphere. After 24 hours of incubation at 37° C., 40 μL of nitro tetrazolium iodide are added to each well to reveal the presence of live bacteria by staining the medium pink.
The procedure is identical to that indicated in Example 5 above. 8 μL of an antibiotic solution under consideration (1 mg dissolved in 20 mL) are added to obtain a final antibiotic concentration of 2 μg/mL instead of 8 μL of a doxycycline solution.
as §2

In another experiment the test system is E. coli Human ATCC 28922. Nature of the experiment: MIC determination, E. coli human ATCC 28922. The class given is cell-based. Conditions: Escherichia coli, ATCC28922; Gram-negative; Mueller-Hinton medium, 24 h at 37° C. Summed up: as §1
In experiment [6] the test system is S. intermedius Animal (1051997). Nature of the experiment: MIC determination, S. intermedius animal (1051997). Conditions: Staphylococcus intermedius; Gram-positive; Mueller-Hinton medium, 24 h at 37° C. It counts as cell-based. Summed up:
as §1

Experiment [7] relates to P. aeruginosa (1051575). Nature of the experiment: Potentiation of doxycycline activity (combination MIC). The class given is cell-based, Pseudomonas aeruginosa. To be noted: in presence of doxycycline 2 μg/mL; 24 hours at 37° C.
Another experiment has as its system P. aeruginosa (PAO1). The experiment in a line: MIC of doxycycline alone on PAO1. Conditions: Pseudomonas aeruginosa, Gram-negative strain P. aeruginosa (PAO1). The class given is cell-based. As to the method: On the Gram-negative strain of P. aeruginosa (PAO1), doxycycline has an MIC of 40 μg/mL.
The test system of experiment [8] is E. faecalis Human ATCC 29212. The experiment in a line: MIC determination, E. faecalis human ATCC 29212. It counts as cell-based. Conditions: Enterococcus faecalis, ATCC29212; Gram-positive; Mueller-Hinton medium, 24 h at 37° C. An outline of the steps: as §1
Setting [9] is: CHO-K1, 24 h, read-out: IC50 (μg/mL) CHO.
Where [10] appears, read: CHO-K1, read-out: IC50 (μg/mL) CHO.

One may read the MIC as the lowest concentration that inhibits growth of the organism. `CCN(CC)C(=O)CC[C@@H](C)[C@H]1CCC2C3C(CC[C@@]21C)[C@@]1(C)CC[C@H](NCCCN(CCCN)CCCN)CC1C[C@H]3O` (stereo partly drawn) [(44), 3β-(tris(3-aminopropyl)amine)-N,N-diethylchenodeoxycholamide]: the MIC turned out to be 4 µg/mL (≈ 6.47 µM) in the experiment with S. aureus Animal (340); 30 µg/mL (≈ 48.5 µM) with E. coli Animal (1956); 2 µg/mL (≈ 3.24 µM) in experiment [2]; 60 µg/mL (≈ 97.1 µM) in [3]; 60 µg/mL (≈ 97.1 µM) in experiment [4]; 15 µg/mL (≈ 24.3 µM) in the experiment on E. coli Human ATCC 28922. Moreover, the lowest concentration to inhibit growth in [6] (MIC) was 2 µg/mL (≈ 3.24 µM). For the same compound, the values for the IC50 in the experiment with C. albicans, in the experiment on CHO-K1 cells (setting [9]) and with CHO-K1 cells (setting [10]) were 0.5 µg/mL (≈ 0.809 µM), 75 µg/mL (≈ 121 µM) and 75 µg/mL (≈ 121 µM), respectively. Besides, the “MIC P. aeruginosa (1051575) compound + chloramphenicol” value in the experiment with P. aeruginosa (1051575) [1] was found to be 4 µg/mL. Besides, the “MIC P. aeruginosa (1051575) compound + erythromycin” value in the experiment with P. aeruginosa (1051575) [5] worked out at 8 µg/mL. Also, the “MIC - P. aeruginosa (1051575): content of compound of formula (I) to restore the doxycycline activity (at 2 μg/mL)” value in the experiment with P. aeruginosa (1051575) [7] turned out to be 2 µg/mL.
In the case of `C[C@H]1c2cccc(O)c2C(=O)C2=C(O)[C@]3(O)C(=O)C(C(N)=O)=C(O)[C@@H](N(C)C)[C@@H]3[C@@H](O)[C@@H]21` [doxycycline], the MIC in the experiment with P. aeruginosa (PAO1) was 40 µg/mL.
As for `CNC(=O)CC[C@@H](C)[C@H]1CCC2C3C(CC[C@@]21C)[C@@]1(C)CC[C@H](NCCCNCCCN)CC1C[C@H]3O` (stereo partly drawn) [(11), 3β-norspermidino-N-methylchenodeoxycholamide], the MIC against S. aureus Animal (340) worked out at 3 µg/mL (≈ 5.78 µM); in the experiment on E. coli Animal (1956), 13 µg/mL (≈ 25.1 µM); in [2], 6 µg/mL (≈ 11.6 µM); in experiment [3], 12 µg/mL (≈ 23.1 µM); in [4], 6 µg/mL (≈ 11.6 µM); in the experiment with E. coli Human ATCC 28922, 13 µg/mL (≈ 25.1 µM). For the same compound, the MIC stood at 13 µg/mL (≈ 25.1 µM) in [8] and 1 µg/mL (≈ 1.93 µM) in experiment [6]. In addition, the IC50 is 3 µg/mL (≈ 5.78 µM) with C. albicans, 20 µg/mL (≈ 38.5 µM) with CHO-K1 cells (setting [9]) and 20 µg/mL (≈ 38.5 µM) in the experiment on CHO-K1 cells (setting [10]). Further, the “MIC - P. aeruginosa (1051575): content of compound of formula (I) to restore the doxycycline activity (at 2 μg/mL)” value with P. aeruginosa (1051575) [7] was 2 µg/mL.
